Here are results for twelve compounds from US9315459B2, “Crystalline forms of 4-[2-(4-methylphenylsulfanyl)-phenyl] piperidine” (priority 2006, dated 2016).

The series in a line: Solubility of salts in water, pH of the saturated solution and identity of the precipitate. The conditions noted are these: for Precipitate: precipitate isolated after the solubility determination compared with the compound dissolved; for Solubility in words: summary of table 3; for Formation of hydrates: when precipitated from water; for Resulting pH: pH in the saturated solution of the salt. The format is physicochemical.

Where a name gives a salt, the structure may show the parent alone.

Protocol: If the acid was a liquid it was added neat otherwise it was dissolved in the given solvent prior to addition. After mixing and precipitation stirring was continued overnight and the precipitate collected by filtration. Before drying in vacuum at 30° C. a small reference sample was withdrawn and dried at room temperature without vacuum. This procedure was included in order to test for solvates.

`Cc1ccc(Sc2ccccc2C2CCNCC2)cc1` (racemic): the Precipitate entry is given as “=start (after” and the Solubility in words result is “exceptionally high solubility”. In the case of `Cc1ccc(Sc2ccccc2C2CCNCC2)cc1` [Adipicacid, 1,6-hexanedioic acid 2:1], the Precipitate result is reported as “=start”. Consider `Cc1ccc(Sc2ccccc2C2CCNCC2)cc1` [Citric acid 2:1], for which the Precipitate result is on record as “=Start”.

As for `Cc1ccc(Sc2ccccc2C2CCNCC2)cc1` [D-tartaric acid, D-2,3-dihydroxy butanedioic acid 1:1], the Precipitate entry is listed as “Hydrate” and the Formation of hydrates entry is reported as “do”. For `Cc1ccc(Sc2ccccc2C2CCNCC2)cc1` [Fumaric acid 1:1], the Precipitate entry is “=start”. For `Cc1ccc(Sc2ccccc2C2CCNCC2)cc1` [Glutamic acid 1:1], the Solubility in words entry is on record as “exceptionally high solubility”. In the case of `Cc1ccc(Sc2ccccc2C2CCNCC2)cc1` [Glutaric acid, 1,5-pentanedioic acid 1:1], the Precipitate result was “=start” and the Solubility in words result is “exceptionally high solubility”. `Cc1ccc(Sc2ccccc2C2CCNCC2)cc1` [HBr, 4-[2-(4-methylphenylsulfanyl)phenyl]piperidine hydrobromide]: for the setting “hydrobromide”, the “Resulting pH” value is 7.0 and the Precipitate entry is “=Start”. In addition, where the note is “listed as HBr addition salt, hydrobromide”, the Formation of hydrates entry is recorded as “does not form hydrates”.

On to `Cc1ccc(Sc2ccccc2C2CCNCC2)cc1` [HCl, 4-[2-(4-methylphenyl-sulfanyl)phenyl]piperidine hydrochloride addition salt], for which the Precipitate result is given as “=Start”.

For `Cc1ccc(Sc2ccccc2C2CCNCC2)cc1` [Oxalic acid 1:1], the Precipitate result was “=Start”. As for `Cc1ccc(Sc2ccccc2C2CCNCC2)cc1` [Phosphoric acid 1:1], the “Resulting pH” value is recorded as 2.0. For the compound `Cc1ccc(Sc2ccccc2C2CCNCC2)cc1` [Sebacoinic acid, 1,8-octanedioic acid 2:1], the Precipitate entry is on record as “=Start”.
